From patent publication US11053204B2, “Pyrimidinyloxy benzene derivatives as herbicides” (FMC Corporation, priority 2015, dated 2021)

Tests used:
Type in all cases: in vivo
[1] = test system: nightshade (eastern black nightshade, Solanum ptycanthum); assay: Test C preemergence, plant response rating
kochia (Kochia scoparia) = assay: Test C preemergence, plant response rating
[2] = test system: barnyardgrass (Echinochloa crus-galli); assay: Test C preemergence, plant response rating; settings: Preemergence
[3] = test system: johnsongrass (Sorghum halepense); assay: Test C preemergence, plant response rating
[4] = test system: surinam grass (Brachiaria decumbens); assay: Test C postemergence, plant response rating
In short: (§1)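 Preemergence: seeds sown in loam–sand blend or silt loam and sprayed with test chemicals in a non-phytotoxic surfactant-containing solvent. Postemergence: potted plants at 2–18 cm (1–4-leaf stage) sprayed with the same formulation. After 13–15 d in greenhouse, visual rating versus controls on 0 (no effect) to 100 (complete control) scale.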

[5] = test system: speedwell (bird's-eye speedwell, Veronica persica); assay: Test C postemergence, plant response rating; settings: for Speedwell plant response rating: scale 0 to 100 (0 no effect, 100 complete control)
In short: as §1

[6] = test system: geranium, cutleaf (cutleaf geranium, Geranium dissectum); assay: Test C postemergence, plant response rating; settings: for Geranium, Cutleaf plant response rating: scale 0 to 100 (0 no effect, 100 complete control)
In short: as §1

[7] = test system: field poppy (Papaver rhoeas); assay: Test C postemergence, plant response rating; settings: for Field Poppy plant response rating: scale 0 to 100 (0 no effect, 100 complete control)
In short: as §1

[8] = test system: field violet (Viola arvensis); assay: Test C postemergence, plant response rating; settings: for Field Violet plant response rating: scale 0 to 100 (0 no effect, 100 complete control)
In short: as §1

[9] = test system: pigweed, palmer (palmer pigweed, Amaranthus palmeri); assay: Test C postemergence, plant response rating; settings: for Pigweed, Palmer plant response rating: scale 0 to 100 (0 no effect, 100 complete control)
In short: as §1

[10] = test system: wild mustard (Sinapis arvensis); assay: Test C postemergence, plant response rating; settings: for Mustard, Wild plant response rating: scale 0 to 100 (0 no effect, 100 complete control)
In short: as §1

[11] = test system: Canada thistle (Cirsium arvense); assay: Test C postemergence, plant response rating; settings: for Canada Thistle plant response rating: scale 0 to 100 (0 no effect, 100 complete control)
In short: as §1

[12] = test system: buckwheat, wild (wild buckwheat, Polygonum convolvulus); assay: Test C postemergence, plant response rating; settings: for Buckwheat, Wild plant response rating: scale 0 to 100 (0 no effect, 100 complete control)
In short: as §1

[13] = test system: johnsongrass (Sorghum halepense); assay: Test C postemergence, plant response rating; settings: for Johnsongrass plant response rating: scale 0 to 100 (0 no effect, 100 complete control)
In short: as §1

[14] = test system: wild poinsettia (Euphorbia heterophylla); assay: Test C postemergence, plant response rating; settings: for Poinsettia, Wild plant response rating: scale 0 to 100 (0 no effect, 100 complete control)
In short: as §1

[15] = test system: windgrass (Apera spica-venti); assay: Test C postemergence, plant response rating
In short: as §1

[16] = test system: nightshade (eastern black nightshade, Solanum ptycanthum); assay: Test C postemergence, plant response rating; settings: for Nightshade plant response rating: scale 0 to 100 (0 no effect, 100 complete control)
In short: as §1

[17] = test system: galium (catchweed bedstraw, Galium aparine); assay: Test C preemergence, plant response rating
[18] = 125 g ai/ha, scale 0 to 100 (0 no effect, 100 complete control)

## FC(F)(F)CCCCc1c(Br)cccc1Oc1ncc(Cl)cn1 [Compound 138]
[1]; 31 g ai/ha, scale 0 to 100
  Plant response rating, Nightshade: 50
[1]; 62 g ai/ha, scale 0 to 100
  Plant response rating, Nightshade: 80
[1]; 125 g ai/ha, scale of 0 to 100
  Plant response rating, Nightshade: 80
Kochia (Kochia scoparia); 31 g ai/ha, scale 0 to 100
  Plant response rating, Kochia: 75
Kochia (Kochia scoparia); 62 g ai/ha, scale 0 to 100
  Plant response rating, Kochia: 80
Kochia (Kochia scoparia); 125 g ai/ha, scale of 0 to 100
  Plant response rating, Kochia: 80
[2]; 125 g ai/ha, scale of 0 to 100
  Plant response rating, Barnyardgrass: 95
[2]; 16 g ai/ha, scale 0 to 100
  Plant response rating, Barnyardgrass: 20
[2]; 31 g ai/ha, scale 0 to 100
  Plant response rating, Barnyardgrass: 40
[2]; 62 g ai/ha, scale 0 to 100
  Plant response rating, Barnyardgrass: 80
[3]; 31 g ai/ha, scale 0 to 100
  Plant response rating, Johnsongrass: 0
[3]; 62 g ai/ha, scale 0 to 100
  Plant response rating, Johnsongrass: 50
[3]; 125 g ai/ha, scale of 0 to 100
  Plant response rating, Johnsongrass: 60
[4]; 16 g ai/ha, scale of 0 to 100
  Plant response rating, Surinam Grass: 20
[4]; 31 g ai/ha, scale 0 to 100
  Plant response rating, Surinam Grass: 20
[4]; [18]
  Surinam Grass plant response rating: 35
[5]; 16 g ai/ha, scale of 0 to 100
  Plant response rating, Speedwell: 95
[5]; 31 g ai/ha, scale 0 to 100
  Plant response rating, Speedwell: 100
[5]; 62 g ai/ha
  Speedwell plant response rating: 100
[5]; 125 g ai/ha
  Speedwell plant response rating: 100
[6]; 16 g ai/ha, scale of 0 to 100
  Plant response rating, Geranium, Cutleaf: 30
[6]; 31 g ai/ha, scale 0 to 100
  Plant response rating, Geranium, Cutleaf: 35
[6]; 62 g ai/ha
  Geranium, Cutleaf plant response rating: 55
[6]; 125 g ai/ha
  Geranium, Cutleaf plant response rating: 60
[7]; 16 g ai/ha, scale of 0 to 100
  Plant response rating, Field Poppy: 100
[7]; 31 g ai/ha, scale 0 to 100
  Plant response rating, Field Poppy: 100
[7]; 62 g ai/ha
  Field Poppy plant response rating: 100
[7]; 125 g ai/ha
  Field Poppy plant response rating: 100
[8]; 16 g ai/ha, scale of 0 to 100
  Plant response rating, Field Violet: 90
[8]; 31 g ai/ha, scale 0 to 100
  Plant response rating, Field Violet: 95
[8]; 62 g ai/ha
  Field Violet plant response rating: 100
[8]; 125 g ai/ha
  Field Violet plant response rating: 100
[9]; 16 g ai/ha, scale of 0 to 100
  Plant response rating, Pigweed, Palmer: 75
[9]; 31 g ai/ha, scale 0 to 100
  Plant response rating, Pigweed, Palmer: 80
[9]; 62 g ai/ha
  Pigweed, Palmer plant response rating: 90
[9]; 125 g ai/ha
  Pigweed, Palmer plant response rating: 98
[10]; 16 g ai/ha, scale of 0 to 100
  Plant response rating, Mustard, Wild: 100
[10]; 31 g ai/ha, scale 0 to 100
  Plant response rating, Mustard, Wild: 100
[10]; 62 g ai/ha
  Mustard, Wild plant response rating: 100
[10]; 125 g ai/ha
  Mustard, Wild plant response rating: 100
[11]; 16 g ai/ha, scale of 0 to 100
  Plant response rating, Canada Thistle: 80
[11]; 31 g ai/ha, scale 0 to 100
  Plant response rating, Canada Thistle: 80
[11]; 62 g ai/ha
  Canada Thistle plant response rating: 90
[11]; 125 g ai/ha
  Canada Thistle plant response rating: 95
[12]; 16 g ai/ha, scale of 0 to 100
  Plant response rating, Buckwheat, Wild: 70
[12]; 31 g ai/ha, scale 0 to 100
  Plant response rating, Buckwheat, Wild: 80
[12]; 62 g ai/ha
  Buckwheat, Wild plant response rating: 100
[12]; 125 g ai/ha
  Buckwheat, Wild plant response rating: 100
[13]; 16 g ai/ha, scale of 0 to 100
  Plant response rating, Johnsongrass: 10
[13]; 31 g ai/ha, scale 0 to 100
  Plant response rating, Johnsongrass: 25
[13]; 62 g ai/ha
  Johnsongrass plant response rating: 80
[13]; 125 g ai/ha
  Johnsongrass plant response rating: 90
[14]; 16 g ai/ha, scale of 0 to 100
  Plant response rating, Poinsettia, Wild: 30
[14]; 31 g ai/ha, scale 0 to 100
  Plant response rating, Poinsettia, Wild: 60
[14]; 62 g ai/ha
  Poinsettia, Wild plant response rating: 75
[14]; 125 g ai/ha
  Poinsettia, Wild plant response rating: 90
[15]; 16 g ai/ha, scale of 0 to 100
  Plant response rating, Windgrass: 0
[15]; 31 g ai/ha, scale 0 to 100
  Plant response rating, Windgrass: 15
[15]; [18]
  Windgrass plant response rating: 50
[16]; 16 g ai/ha, scale of 0 to 100
  Plant response rating, Nightshade: 75
[16]; 31 g ai/ha, scale 0 to 100
  Plant response rating, Nightshade: 80
[16]; 62 g ai/ha
  Nightshade plant response rating: 100
[16]; 125 g ai/ha
  Nightshade plant response rating: 98
[17]; 31 g ai/ha, scale 0 to 100
  Plant response rating, Galium: 0
[17]; 62 g ai/ha, scale 0 to 100
  Plant response rating, Galium: 5
[17]; 125 g ai/ha, scale of 0 to 100
  Plant response rating, Galium: 5
